Results published in patent US7531195B2, “Schisandrin B preparation” (priority 2005, dated 2009).
Marks after values point to notes of the source that are not given here.

Assays:
Type in all cases: in vivo, rat
Myocardial Mitochondria [1] = assay: Myocardial mitochondrial glutathione antioxidant status, young male and female rats; details: 35 days
Experimental: (§1) Male/Female adult Sprague-Dawley rats (˜10 weeks old) were maintained under a 12-h dark/light cycle at about 22° C. and allowed food and water ad libitum. Animals were randomly divided into groups, with at least 5 animals in each. In the pretreatment groups, rats were treated intragastrically with (−) Schisandrin B at a daily dose of 1 or 10 mg/kg for 35 days. Control animals received oil only (10 ml/kg). Twenty-four hours following the last dosing, hearts were isolated from control or drug-pretreated rats and then subjected to Langendorff perfusion as described below.
(§2) Myocardial tissue samples were rinsed with ice-cold isotonic buffer (50 mM Tris, 0.32 M sucrose, 1 mM Na2EDTA, 0.2 mg/ml soybean trypsin inhibitor, 0.2 mg/ml bacitracine, 0.16 mg/ml benzamidine). Tissue homogenates were prepared by homogenizing 0.8 g of myocardial tissue in 8 ml ice-cold isotonic buffer and the homogenates were used for the preparation of mitochondrial fractions by differential centrifugation, as described in Chiu and Ko (2004). The mitochondrial pellets were resuspended in 1.5 ml of isotonic buffer containing 150 μl of 2 mg/ml soybean trypsin inhibitor and constituted the mitochondrial fractions.
Aliquots (500 μl) of mitochondrial fractions were taken for measuring mitochondrial GSH level by HPLC methods, using GSH as standards, respectively, as described (Chiu et al 2002). Aliquots (400 μl) of mitochondrial fractions were mixed with 933 μl Triton X-100 solution (0.3%, v/v, in isotonic buffer) and sonicated for 2 min on ice. The mixtures were then subjected to measurements of mitochondrial glutathione reductase (GRD), Se-glutathione peroxidase (GPX) and glutathione S-transferases (GST) activities by spectrophotometric methods, as described in Chiu et al. (2002).

Myocardial Mitochondria [2] = assay: Myocardial mitochondrial ATP generation capacity, young male and female rats; details: 35 days
Experimental: as §1, §2
Myocardial mitochondrial ATP generation capacity was measured by incubating 200 μl of nucleus-free tissue homogenate with 200 μl of substrate solution (containing 100 mM glutamate and 34 mM malate) and 20 μl ADP (2.3 mM) for 10 min at 37° C., and the ATP level were measured using an assay kit from Sigma Chemical Co. (St. Louis, Mo., USA). LDH activity was spectrophotometrically measured as described (Yim and Ko 1999).

[3] = tested on: mitochondria of brain, heart, liver and skeletal muscle; assay: Mitochondrial reactive oxidant species (ROS) generation in tissues of young adult and middle-aged rats
Experimental: Young adult (8-10 week-old) and middle-aged (12-14 month-old retired breeder) female Sprague-Dawley rats were maintained under a 12-h dark/light cycle at about 22° C. and allowed food and water ad libitum. Experimental protocols were approved by the Research Practice Committee at the Hong Kong University of Science & Technology, Hong Kong. Animals were randomly divided into groups, with 5 animals in each. In the treatment groups, rats were intragastrically administered with Sch B (dissolved/suspended in olive oil) at a daily dose of 10 mg/kg for 15 days. The daily dose is approximated to 1.14 mg/kg for humans after adjusting the inter-species difference in drug distribution in the body. Untreated control animals received olive oil only. Twenty-four hours after the last dosing, animals were sacrificed by decapitation and the whole brain, heart ventricular, liver and skeletal muscle (hind limb) tissues were excised and subjected to biochemical analysis. To investigate the effect of (−) Sch B on myocardial ischemia-reperfusion […] injury, rats were intragastrically administered with (−) Sch B at a daily dose of 10 mg/kg for 35 days. Untreated control animals received olive oil only. […]
Mitochondrial pellets were prepared from tissue homogenates by centrifugation at 800×g at 4° C. for 30 min, with purity being determined by measuring the relative specific activities of succinate dehydrogenase and lactate dehydrogenase (LDH) in the supernatant and mitochondrial pellet. […] The protein concentration of mitochondrial fractions was determined using a Bio-Rad protein assay kit.
An aliquot (50 μl) of mitochondrial fraction (50 μg protein/ml) and 60 μl of DCFDA solution (17.5 μM in incubation buffer) were added into wells of a black micro-titer plate. […] Fluorescence intensity (excitation: 485 nm and emission: 535 nm) of the reaction mixture was monitored every 5 min for 60 min. The mitochondrial ROS generation was reflected by the fluorescence intensity of the sample after subtracting the value of a blank sample containing incubation buffer, substrate solution and DCFDA. […]

[4] = female rats, 1 mg/kg daily oral
[5] = female rats, 10 mg/kg daily oral

Q: How did the GPX (Myocardial Mitochondria [1]; [4]) turn out when `COc1cc2c(c(OC)c1OC)-c1c(cc3c(c1OC)OCO3)CC(C)C(C)C2` (single isomer, unassigned; (-)) [(−) Sch B, (−) Schisandrin B] was run?
A: 73.2 ± 4.98^b mU/mg Protein

Q: What about the “GPX, percent increase vs untreated control” value (“GPX, percent increase” below) (Myocardial Mitochondria [1]; [4]) of the same molecule?
A: (43%)

Q: And the GRD (Myocardial Mitochondria [1]; [4])?
A: 6.30 ± 0.37^b mU/mg protein

Q: What about the “GRD, percent increase vs untreated control” value (“GRD, percent increase” for short) (Myocardial Mitochondria [1]; [4]) of the same molecule?
A: (34%)

Q: What about the GSH (Myocardial Mitochondria [1]; [4]) of the same molecule?
A: 17.3 ± 1.11^b nmol/mg protein

Q: What about the “GSH, percent increase vs untreated control” value (from here on “GSH, percent increase”) (Myocardial Mitochondria [1]; [4]) of the same molecule?
A: (60%)

Q: And the GST (Myocardial Mitochondria [1]; [4])?
A: 14.1 ± 0.58^b mU/mg protein

Q: What about the “GST, percent increase vs untreated control” value (from here on “GST, percent increase”) (Myocardial Mitochondria [1]; [4]) of the same molecule?
A: (37%)

Q: What about the GPX (Myocardial Mitochondria [1]; [5]) of the same molecule?
A: 78.3 ± 2.94^b mU/mg Protein

Q: And the “GPX, percent increase” value (Myocardial Mitochondria [1]; [5])?
A: (53%)

Q: And the GRD (Myocardial Mitochondria [1]; [5])?
A: 8.02 ± 0.55^b mU/mg protein

Q: What about the “GRD, percent increase” value (Myocardial Mitochondria [1]; [5]) of the same molecule?
A: (71%)

Q: And the GSH (Myocardial Mitochondria [1]; [5])?
A: 21.6 ± 0.38^b nmol/mg protein

Q: What about the “GSH, percent increase” value (Myocardial Mitochondria [1]; [5]) of the same molecule?
A: (107%)

Q: And the GST (Myocardial Mitochondria [1]; [5])?
A: 16.9 ± 0.90^b mU/mg protein

Q: And the “GST, percent increase” value (Myocardial Mitochondria [1]; [5])?
A: (63%)

Q: What about the GPX (Myocardial Mitochondria [1]; male rats, 1 mg/kg daily oral) of the same molecule?
A: 77.3 ± 3.78^a mU/mg Protein

Q: And the “GPX, percent increase” value (Myocardial Mitochondria [1]; male rats, 1 mg/kg daily oral)?
A: (48%)

Q: What about the GRD (Myocardial Mitochondria [1]; male rats, 1 mg/kg daily oral) of the same molecule?
A: 6.76 ± 0.29 mU/mg protein

Q: What about the “GRD, percent increase” value (Myocardial Mitochondria [1]; male rats, 1 mg/kg daily oral) of the same molecule?
A: (26%)

Q: What about the GSH (Myocardial Mitochondria [1]; male rats, 1 mg/kg daily oral) of the same molecule?
A: 18.1 ± 1.06^a nmol/mg protein

Q: What about the “GSH, percent increase” value (Myocardial Mitochondria [1]; male rats, 1 mg/kg daily oral) of the same molecule?
A: (56%)

Q: And the GST (Myocardial Mitochondria [1]; male rats, 1 mg/kg daily oral)?
A: 12.8 ± 0.10 mU/mg protein

Q: What about the “GST, percent increase” value (Myocardial Mitochondria [1]; male rats, 1 mg/kg daily oral) of the same molecule?
A: (65%)

Q: And the GPX (Myocardial Mitochondria [1]; male rats, 10 mg/kg daily oral)?
A: 83.7 ± 2.12^a mU/mg Protein

Q: What about the “GPX, percent increase” value (Myocardial Mitochondria [1]; male rats, 10 mg/kg daily oral) of the same molecule?
A: (60%)

Q: And the GRD (Myocardial Mitochondria [1]; male rats, 10 mg/kg daily oral)?
A: 7.59 ± 0.13^a mU/mg protein

Q: And the “GRD, percent increase” value (Myocardial Mitochondria [1]; male rats, 10 mg/kg daily oral)?
A: (42%)

Q: And the GSH (Myocardial Mitochondria [1]; male rats, 10 mg/kg daily oral)?
A: 23.8 ± 1.10^a nmol/mg protein

Q: What about the “GSH, percent increase” value (Myocardial Mitochondria [1]; male rats, 10 mg/kg daily oral) of the same molecule?
A: (105%)

Q: And the GST (Myocardial Mitochondria [1]; male rats, 10 mg/kg daily oral)?
A: 14.5 ± 0.36^a mU/mg protein

Q: And the “GST, percent increase” value (Myocardial Mitochondria [1]; male rats, 10 mg/kg daily oral)?
A: (83%)

Q: What about the “ATP Generation, percent increase vs untreated control” value (from here on “ATP Generation, percent increase”) (Myocardial Mitochondria [2]; [4]) of the same molecule?
A: (26%)

Q: And the “ATP generation” value (Myocardial Mitochondria [2]; [4])?
A: 4.11 ± 0.19^b μmol/min/mg protein

Q: And the “ATP Generation, percent increase” value (Myocardial Mitochondria [2]; [5])?
A: (78%)

Q: And the “ATP generation” value (Myocardial Mitochondria [2]; [5])?
A: 5.79 ± 0.37^b μmol/min/mg protein

Q: What about the “ATP Generation, percent increase” value (Myocardial Mitochondria [2]; male rats, 1 mg/kg daily oral) of the same molecule?
A: (99%)

Q: What about the “ATP Generation, percent increase” value (Myocardial Mitochondria [2]; male rats, 10 mg/kg daily oral) of the same molecule?
A: (141%)

Q: And the “ATP generation” value (Myocardial Mitochondria [2]; male rats, 10 mg/kg daily oral)?
A: 6.74 ± 0.37^a μmol/min/mg protein

Q: And the “decrease of mitochondrial ROS generation” value ([3]; middle-aged rats, 10 mg/kg/day x 15, range among tissues)?
A: 11-23%

Q: What about the “difference in liver mitochondrial ROS generation between control and treated” value ([3]; middle-aged rats, liver) of the same molecule?
A: not statistically significant

Q: What about the “suppression of mitochondrial ROS generation” value ([3]; young adult rats, 10 mg/kg/day x 15, range among all tissues) of the same molecule?
A: 16-38%
